Experimental data reported in patent publication US20250213614A1, “Modified RELA Protein for Inducing Interferon Expression and Engineered Immune Cells with Improved Interferon Expression” (Institut Curie, priority 2022, published 2025).

How the values were obtained:
Assay type in all cases: cell-based, human
CD4+ T cells = experiment: IFN-I/III quantification (LEGENDplex) in CD4+ T cells, baseline or after STING stimulation; details: for IFNλ1 after cGAMP stimulation: 2D, 2F
Description: (§1) Plasmapheresis blood pockets were obtained from healthy adult volunteers after informed consent from the EFS (Establishment of French blood collection). Peripheral blood mononuclear cells (PBMCs) were isolated using Ficoll-Paque Plus (GE-17144003) and left overnight at 4° C. in RPMI (Thermo fischer #61870-010) with 10% heat-decomplemented fetal bovine serum (FBS, Eurobio #CVFSVFO0-01). CD14+ cells were enriched by positive selection (Miltenyi #130-050-201), the CD14 negative fraction was subsequently used to isolate total CD4+ T cells by negative selection (Stem Cell #17952). CD14+ cells were cultured in RPMI containing 10% FBS, 5% Penicillin-Streptomycin (PS, Thermo Fisher #10378-016), 50 μg/ml Gentamicin (Thermo Fisher #15750-045) and 10 mM HEPES (Thermo Fisher #15630-056). CD14+ cells were differentiated ex vivo into MDDC by supplementing the culture media with 50 ng/ml IL-4 (Miltenyi #130-093-922) and 10 ng/ml GM-CSF (Miltenyi #130-093-867). MDDC were used for experiments 3 or 4 days following the start of the culture. CD14+ cells were differentiated ex vivo into macrophages by adding 50 ng/ml MCSF (Miltenyi #130-096-492) to the culture media containing RPMI with 1% PS, 5% FBS and 5% human serum (Sigma #H4522). MDM were used 7 days following culture. Freshly isolated CD4+ T cells were cultured in X-VIVO 15 (Lonza #BE02-060F) and activated using anti-CD3 and anti-CD28 Dynabeads (fisher scientific #10548353) at the ratio of 1:5 (bead:cell). 100 U/ml human IL-2 (Immunotools #11340027) was added to cultures 2 days following TCR stimulation and media with IL-2 was replenished every 48 hours. To assess proliferation, freshly isolated CD4+ T cells were stained with cell proliferation dye (thermo fischer #65-0840-85) prior to TCR stimulation.
(§2) CD14+ cells were plated at 1 million cells/ml and transduced with equal volumes of freshly harvested SIV-VLPs and pTRIP-SFFV vectors in the presence of 8 μg/ml protamine (Sigma #P4020). CD4+ T cells were transduced with lentivectors 24 hours post-TCR stimulation in 100 μl of cells (0.2 million cells) and 100 μl of freshly harvested lentivirus in the presence of 8 μg/ml protamine. T cells were spinoculated at 1200 g for 2 hours at 25° C. 0.5 million THP-1 cells in 500 μl media (RPMI 10% FBS 1% PS) were transduced with 500 μl freshly harvested lentivirus in the presence of 8 μg/ml protamine. 1 μg/ml Puromycin (Invivogen #ant-pr-1) was added 2 days post-transduction when cells were transduced with pLKO.1-puro plasmid.
For stimulation of STING by extracellular ligands, 2.5 μg of ADUS100 (invivogen #tlrl-nacda2r-01) or 2′3′-cGAMP (cGAMP, invivogen #tlrl-nacga23-02) was added to 100,000 cells in 100 μl media either on freshly isolated primary cells or 3-4 days post differentiation for MDDC and 3 days post-TCR stimulation for CD4+ T cells. Cells and supernatant were harvested 18-24 hours post stimulation. For delivery of STING ligands after permeabilization, T cells were used 3 or 4 days post TCR stimulation and MDDC were used 3-4 days following differentiation. 150,000 cells were plated in round bottom 96-well plate. Media was removed by centrifugation and 20 μl 2× permeabilization buffer (100 mM HEPES, 200 mM KCl, 6 mM MgCl2, 0.2 mM DTT, 170 mM Sucrose, 2 mM ATP, 2 mM GTP, 0.4% bovine serum albumin (BSA), 20 μg/ml digitonin) and 20 μl cGAMP (12 μg/ml) was added to cells. 18 to 20 hours following stimulation supernatants and cells were harvested. Cells were stained with a fixable viability dye (Invitrogen #65-0865-14) and acquired on a FACSVerse (BD). […]
Where indicated, cells were treated with 5-Azacytidine (5AZA, Sigma #A2385) 48 hours prior to cGAMP stimulation. Fresh 5AZA was added daily to cells, and media was replenished with 5AZA following cGAMP stimulation. 100 nM Trichostatin A (TSA) (sigma #T1952) was added to cells following cGAMP stimulation and left overnight. […]

[1] = test system: STING, TBK1, IRF3, RELA, IRF7; experiment: Western blot of key signaling proteins involved in STING signaling; details: for endogenous RELA expression: overexpression in CD4+ T cells and MDDC, FIG. 2C
Description: 0.5 million cells were lysed for 30 minutes on ice in 50 μl RIPA buffer (50 mM Tris HCl, 150 mM NaCl, 0.1% SDS, 0.5% DOC, 1% NP-40) with Protease inhibitor (Roche #1187358001). To evaluate, phospho-proteins 50 mM NaF and 1 mM sodium orthovanadate were added to the lysis buffer. Protein lysates were cleared by centrifugation at 12,000 g for 10 to 12 minutes at 4° C. 10 μl of 6× Laemmli buffer (fisher scientific #J61337) was added to 50 μl protein lysates and samples were boiled at 95° C. for 15 minutes. Protein samples were resolved on 4%-20% Biorad precast SDS-PAGE gels (#5671125) and transferred onto PVDF membranes (BioRad #1704157). Membranes were blocked in 5% non-fat dry milk in PBS 0.1% tween or in TBS 5% BSA 0.1% Tween to detect phosphorylated proteins. Primary antibodies were used at 1:1000:phospho-STING (clone-D7C3S), STING (clone-D2P2F), serine 172 phospho-TBK1 (clone-D52C2), TBK1 (clone-D11B4), serine 396 phospho IRF3 (clone-D6O1M), IRF3 (clone-D83B9), RELA (clone-C22B4), IRF7 (clone-12G9A36), cGAS (clone-D1 D3G), Actin (clone-C4), Sendai viral proteins (Biozol #MBL-PD029). Secondary anti-rabbit or anti-mouse antibody were used at 1:10,000 (santa cruz #sc-2357, #sc-516102). ECL signal (Biorad #1705061 and #1705062) was recorded on a ChemiDoc Touch Biorad Imager. Data was analyzed and quantified with Image Lab software (Biorad). In figures, dotted lines indicate reordering of lanes from a single original membrane for visualization purpose.

MDDC = experiment: IFN-I/III quantification (LEGENDplex) in MDDC after STING stimulation; details: lentivector overexpression in MDDC, cGAMP 6 μg/ml; for IFN-I/III response to cGAMP compared to the control condition: FIG. 2D
Description: as §1, §2
For stimulation of STING by extracellular ligands, 2.5 μg of ADUS100 (invivogen #tlrl-nacda2r-01) or 2′3′-cGAMP (cGAMP, invivogen #tlrl-nacga23-02) was added to 100,000 cells in 100 μl media either on freshly isolated primary cells or 3-4 days post differentiation for MDDC and 3 days post-TCR stimulation for CD4+ T cells. Cells and supernatant were harvested 18-24 hours post stimulation. For delivery of STING ligands after permeabilization, T cells were used 3 or 4 days post TCR stimulation and MDDC were used 3-4 days following differentiation. 150,000 cells were plated in round bottom 96-well plate. Media was removed by centrifugation and 20 μl 2× permeabilization buffer (100 mM HEPES, 200 mM KCl, 6 mM MgCl2, 0.2 mM DTT, 170 mM Sucrose, 2 mM ATP, 2 mM GTP, 0.4% bovine serum albumin (BSA), 20 μg/ml digitonin) and 20 μl cGAMP (12 μg/ml) was added to cells. 18 to 20 hours following stimulation supernatants and cells were harvested. Cells were stained with a fixable viability dye (Invitrogen #65-0865-14) and acquired on a FACSVerse (BD).
For experiments with conditioned media, CD4+ T cell- and MDDC-conditioned media refer to […] filtered conditioned media from cultures of activated CD4+ T cell and MDDC, respectively. CD4+ T cells were pretreated with 100 μl of MDDC-conditioned media or of fresh MDDC culture media, 24 hours prior to cGAMP stimulation. […]

[2] = lentivector overexpression in CD4+ T cells, FIG. 2B

CC(/C=C/C(=O)NO)=C\[C@@H](C)C(=O)c1ccc(N(C)C)cc1 [TSA, Trichostatin A, reference compound]
IFN expression at baseline with RELA K5R and after cGAMP stimulation (CD4+ T cells; CD4+ T cells treated with TSA): inhibits IFN expression
IFNλ1 response to cGAMP under epigenetic inhibitor (CD4+ T cells; CD4+ T cells, TSA 100 nM or 5AZA 2 μM, FIG. 3D): reduced the already low IFNλ1 production
cGAMP-mediated STING signaling ([1]; CD4+ T cells treated with TSA or 5AZA, FIG. 3E): intact

RELA: wild type human RELA protein (transcription factor p65, Uniprot Q04206), overexpressed from lentivector [reference compound]
IFNλ1 after cGAMP stimulation (CD4+ T cells; [2]): tendency for increased IFNλ1
IFN-I/III response to cGAMP, RNA and protein levels (CD4+ T cells; lentivector overexpression in CD4+ T cells, cGAMP 6 μg/ml, FIG. 2B): did not significantly enhance
endogenous RELA expression [1]: no impact
IFN-I/III response to cGAMP, RNA and protein levels (MDDC; FIG. 2B): did not significantly enhance
IFN-I/III response to cGAMP compared to the control condition (MDDC): remained unchanged

shRNA 1: pLKO.1-puro-IRF7sh1, shRNA against IRF7, CCCGAGCTGCACGTTCCTATA [reference compound]
induction of IFNα2 by cGAMP stimulation (CD4+ T cells; CD4+ T cells expressing only RELA K5R, IRF7 knock-down, FIG. 4C): abolished
IRF7 expression (knock-down) ([1]; CD4+ T cells treated with IFNα2a 1000 U/ml, FIG. 4B): more potent

B1: RELA K5Q: RELA mutant converting five lysine residues (K122, K123, K310, K314, K315) to glutamine, acetylation mimic (protein, UniProt Q04206 1-551, looked up, variant K122Q K123Q K310Q K314Q K315Q)
Transcription factor p65: MDELFPLIFPAEPAQASGPYVEIIEQPKQRGMRFRYKCEGRSAGSIPGERSTDTTKTHPTIKINGYTGPGTVRISLVTKDPPHRPHPHELVGKDCRDGFYEAELCPDRCIHSFQNLGIQCVQQRDLEQAISQRIQTNNNPFQVPIEEQRGDYDLNAVRLCFQVTVRDPSGRPLRLPPVLSHPIFDNRAPNTAELKICRVNRNSGSCLGGDEIFLLCDKVQKEDIEVYFTGPGWEARGSFSQADVHRQVAIVFRTPPYADPSLQAPVRVSMQLRRPSDRELSEPMEFQYLPDTDDRHRIEEKRKRTYETFQSIMQQSPFSGPTDPRPPPRRIAVPSRSSASVPKPAPQPYPFTSSLSTINYDEFPTMVFPSGQISQASALAPAPPQVLPQAPAPAPAPAMVSALAQAPAPVPVLAPGPPQAVAPPAPKPTQAGEGTLSEALLQLQFDDEDLGALLGNSTDPAVFTDLASVDNSEFQQLLNQGIPVAPHTTEPMLMEYPEAITRLVTGAQRPPDPAPAPLGAPGLPNGLLSGDEDFSSIADMDFSALLSQISS
IFNλ1 after cGAMP stimulation (CD4+ T cells; [2]): abrogated
endogenous RELA expression [1]: no impact
IFN-I/III response to cGAMP compared to the control condition (MDDC): remained unchanged
